Measurements taken from ChEMBL document CHEMBL1201862, “PubChem BioAssay data set” (2004).
The source made the active and inactive calls.

What was measured:
Leucine aminopeptidase = target: T1, Leucine aminopeptidase (Plasmodium falciparum 3D7, UniProt Q8IL11); assay: P. falciparum M17LAP inhibitors, primary screen, biochemical, fluorogenic H-Leu-NHMec substrate, 1536-well (AID 1619); format: functional
T1 sequence (Q8IL11 whole entry): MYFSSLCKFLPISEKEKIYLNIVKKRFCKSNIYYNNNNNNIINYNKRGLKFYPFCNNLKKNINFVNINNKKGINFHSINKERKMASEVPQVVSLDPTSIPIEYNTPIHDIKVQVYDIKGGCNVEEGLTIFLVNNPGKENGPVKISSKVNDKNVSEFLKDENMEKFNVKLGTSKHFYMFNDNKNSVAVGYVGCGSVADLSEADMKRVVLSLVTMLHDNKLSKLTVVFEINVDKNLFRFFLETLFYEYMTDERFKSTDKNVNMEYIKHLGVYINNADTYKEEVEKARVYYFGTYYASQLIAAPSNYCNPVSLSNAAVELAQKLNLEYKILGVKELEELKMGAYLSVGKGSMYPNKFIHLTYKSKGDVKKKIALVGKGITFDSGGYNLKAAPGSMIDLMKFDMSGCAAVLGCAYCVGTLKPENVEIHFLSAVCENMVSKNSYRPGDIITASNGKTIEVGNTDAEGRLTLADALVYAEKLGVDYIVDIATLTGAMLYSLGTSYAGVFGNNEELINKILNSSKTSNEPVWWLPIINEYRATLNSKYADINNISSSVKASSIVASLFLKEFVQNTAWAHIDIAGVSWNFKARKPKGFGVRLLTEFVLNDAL

[1] = target: T2, Sentrin-specific protease 7 (Homo sapiens, UniProt Q9BQF6); format: functional;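 further: Luminescence-based dose-response confirmation of ultra-high-throughput screening hits, measuring inhibition of SENP7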
T2 sequence (Q9BQF6 whole entry): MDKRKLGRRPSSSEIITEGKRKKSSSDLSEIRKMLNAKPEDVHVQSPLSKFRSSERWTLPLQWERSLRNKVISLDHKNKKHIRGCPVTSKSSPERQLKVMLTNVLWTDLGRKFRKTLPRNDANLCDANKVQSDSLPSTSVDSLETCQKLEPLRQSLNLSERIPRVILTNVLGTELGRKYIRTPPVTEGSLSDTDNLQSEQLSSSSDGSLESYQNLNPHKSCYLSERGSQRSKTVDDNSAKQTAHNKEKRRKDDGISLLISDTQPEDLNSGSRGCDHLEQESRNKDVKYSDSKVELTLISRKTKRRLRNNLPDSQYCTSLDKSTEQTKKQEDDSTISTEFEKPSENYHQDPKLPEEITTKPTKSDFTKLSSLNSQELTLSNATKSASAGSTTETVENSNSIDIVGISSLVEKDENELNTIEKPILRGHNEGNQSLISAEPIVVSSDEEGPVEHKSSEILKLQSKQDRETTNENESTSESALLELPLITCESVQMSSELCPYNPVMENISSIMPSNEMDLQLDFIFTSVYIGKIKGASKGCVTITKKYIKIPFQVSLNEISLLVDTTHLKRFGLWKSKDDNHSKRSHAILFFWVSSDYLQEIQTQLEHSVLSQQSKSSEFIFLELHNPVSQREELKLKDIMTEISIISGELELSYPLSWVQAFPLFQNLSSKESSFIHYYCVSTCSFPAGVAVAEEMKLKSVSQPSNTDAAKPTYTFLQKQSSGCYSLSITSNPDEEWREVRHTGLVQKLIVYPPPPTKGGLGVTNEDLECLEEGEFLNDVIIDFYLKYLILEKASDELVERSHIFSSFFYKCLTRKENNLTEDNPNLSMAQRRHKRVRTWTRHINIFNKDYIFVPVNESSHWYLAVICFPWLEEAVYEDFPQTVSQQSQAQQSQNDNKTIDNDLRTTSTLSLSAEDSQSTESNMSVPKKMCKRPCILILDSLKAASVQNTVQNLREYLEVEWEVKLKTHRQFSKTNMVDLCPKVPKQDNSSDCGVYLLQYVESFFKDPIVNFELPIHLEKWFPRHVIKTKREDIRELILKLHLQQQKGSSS

[2] = target: T3, Sentrin-specific protease 8 (Homo sapiens, UniProt Q96LD8); format: functional;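 further: luminescence read-out of SENP8 inhibition, dose-response confirmation following an ultra-high-throughput screen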
T3 sequence (Q96LD8 whole entry): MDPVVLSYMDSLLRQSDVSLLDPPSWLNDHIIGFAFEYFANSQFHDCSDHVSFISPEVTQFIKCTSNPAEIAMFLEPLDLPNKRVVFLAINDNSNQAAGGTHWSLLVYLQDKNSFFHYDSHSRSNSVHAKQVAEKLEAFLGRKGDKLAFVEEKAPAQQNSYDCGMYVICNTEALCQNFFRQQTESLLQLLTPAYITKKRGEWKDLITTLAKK

[3] = target: Luciferin 4-monooxygenase (Photinus pyralis, UniProt P08659); assay: Counter Screen for Luciferase-based Assay Positives. [Related pubchem assays: 620, 618, 411 ]
Luciferin 4-monooxygenase, sequence (P08659 whole entry): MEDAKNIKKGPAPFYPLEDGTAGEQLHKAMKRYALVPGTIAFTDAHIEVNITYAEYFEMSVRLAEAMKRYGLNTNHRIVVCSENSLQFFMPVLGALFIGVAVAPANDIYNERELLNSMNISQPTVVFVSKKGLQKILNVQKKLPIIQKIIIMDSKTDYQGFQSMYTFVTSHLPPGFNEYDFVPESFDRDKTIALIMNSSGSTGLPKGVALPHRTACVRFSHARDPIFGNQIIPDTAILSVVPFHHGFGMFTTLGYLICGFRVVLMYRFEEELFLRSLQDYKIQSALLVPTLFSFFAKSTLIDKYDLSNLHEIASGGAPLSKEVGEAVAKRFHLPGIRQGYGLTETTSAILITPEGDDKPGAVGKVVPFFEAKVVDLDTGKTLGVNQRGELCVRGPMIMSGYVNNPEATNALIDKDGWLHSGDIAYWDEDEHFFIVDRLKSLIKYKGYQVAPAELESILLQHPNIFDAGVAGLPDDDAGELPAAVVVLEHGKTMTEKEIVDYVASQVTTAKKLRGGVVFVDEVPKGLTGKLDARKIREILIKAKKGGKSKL

[4] = HEK-293T viability loss, compound-treated – cell-based, uHTS hits, cytotoxicity control for B/T-cell NF-kB inhibitor project, dose response (AID 489019); format: functional;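 further: IC50 reflects cytotoxicity as loss of cell viability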
[5] = target: Glyceraldehyde-3-phosphate dehydrogenase (Homo sapiens, UniProt P04406)
Glyceraldehyde-3-phosphate dehydrogenase, sequence (P04406 whole entry): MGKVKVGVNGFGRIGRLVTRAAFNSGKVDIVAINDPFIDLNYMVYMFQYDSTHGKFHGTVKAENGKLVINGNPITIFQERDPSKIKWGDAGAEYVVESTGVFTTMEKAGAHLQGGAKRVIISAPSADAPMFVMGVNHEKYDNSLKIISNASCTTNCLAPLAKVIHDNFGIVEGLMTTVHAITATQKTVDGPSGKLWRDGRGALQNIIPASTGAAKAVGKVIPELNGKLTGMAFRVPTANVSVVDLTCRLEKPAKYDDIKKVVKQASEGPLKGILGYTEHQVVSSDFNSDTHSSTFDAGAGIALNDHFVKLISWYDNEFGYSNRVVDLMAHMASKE

A-375 = assay: MITF: Counter assay: A375 proliferation Measured in Cell-Based System Using Plate Reader - 2084-03_Inhibitor_Dose_DryPowder_Activity. [Related pubchem assays (depositor defined):AID488944]; format: functional; details: Homo sapiens
[6] = target: T2, Sentrin-specific protease 7; assay: inhibition of human SENP7 cleavage activity – biochemical, luminescence, SAR follow-up (AID 504497); format: functional

| SMILES | IC50 (Leucine aminopeptidase) | IC50 [1] | IC50 [2] | EC50 [3] | IC50 [4] | IC50 [5] | AC50 (A-375) | IC50 [6] |
| --- | --- | --- | --- | --- | --- | --- | --- | --- |
| N#Cc1c(NC(=O)CSc2nc[nH]n2)sc2c1CCCCC2 | < 1 µM (active) | 5.65 µM (active) | 4.66 µM (active) | 50.9 µM (active) | > 80 µM (inactive) | > 100 µM (not active) | > 35 µM (active) |  |
| COc1ccc(C(N)c2nccc3cc(OC)c(OC)cc23)cc1OC (stereo not drawn) |  |  |  |  |  |  |  | > 99 µM (inactive) |
